In PubChem BioAssay (NCI):
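48-hour exposure; five concentrations; linearly interpolated endpoints. GI50 marks 50% less growth. At the TGI there is no net growth.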

Legend:
Test in all cases: NCI-60 cell line screen, 48 h
786-0 renal = test system: 786-0 renal
A498 renal = test system: A498 renal
A549 NSCLC = test system: A549 NSCLC
ACHN renal = test system: ACHN renal
BT-549 breast = test system: BT-549 breast
CAKI-1 renal = test system: CAKI-1 renal
CCRF-CEM leukemia = test system: CCRF-CEM leukemia
COLO 205 colon = test system: COLO 205 colon
DU-145 prostate = test system: DU-145 prostate
EKVX NSCLC = test system: EKVX NSCLC
HCC-2998 colon = test system: HCC-2998 colon
HCT-116 colon = test system: HCT-116 colon
HCT-15 colon = test system: HCT-15 colon
HL-60(TB) leukemia = test system: HL-60(TB) leukemia
HOP-62 NSCLC = test system: HOP-62 NSCLC
HOP-92 NSCLC = test system: HOP-92 NSCLC
HS 578T breast = test system: HS 578T breast
HT29 colon = test system: HT29 colon
IGROV1 ovarian = test system: IGROV1 ovarian
K-562 leukemia = test system: K-562 leukemia
KM12 colon = test system: KM12 colon
LOX IMVI melanoma = test system: LOX IMVI melanoma
M14 melanoma = test system: M14 melanoma
MALME-3M melanoma = test system: MALME-3M melanoma
MCF7 breast = test system: MCF7 breast
MDA-MB-231 breast = test system: MDA-MB-231 breast
MDA-MB-435 = test system: MDA-MB-435
MDA-MB-468 breast = test system: MDA-MB-468 breast
MOLT-4 leukemia = test system: MOLT-4 leukemia
NCI-H226 lung = test system: NCI-H226 lung
NCI-H23 lung = test system: NCI-H23 lung
NCI-H460 lung = test system: NCI-H460 lung
NCI-H522 lung = test system: NCI-H522 lung
NCI/ADR-RES ovarian = test system: NCI/ADR-RES ovarian
OVCAR-3 ovarian = test system: OVCAR-3 ovarian
OVCAR-4 ovarian = test system: OVCAR-4 ovarian
OVCAR-5 ovarian = test system: OVCAR-5 ovarian
OVCAR-8 ovarian = test system: OVCAR-8 ovarian
PC-3 prostate = test system: PC-3 prostate
RPMI-8226 leukemia = test system: RPMI-8226 leukemia
RXF 393 renal = test system: RXF 393 renal
SF-268 CNS = test system: SF-268 CNS
SF-295 CNS = test system: SF-295 CNS
SF-539 CNS = test system: SF-539 CNS
SK-MEL-2 melanoma = test system: SK-MEL-2 melanoma
SK-MEL-28 melanoma = test system: SK-MEL-28 melanoma
SK-MEL-5 melanoma = test system: SK-MEL-5 melanoma
SK-OV-3 ovarian = test system: SK-OV-3 ovarian
SN12C renal = test system: SN12C renal
SNB-19 CNS = test system: SNB-19 CNS
SNB-75 CNS = test system: SNB-75 CNS
SR leukemia = test system: SR leukemia
SW-620 colon = test system: SW-620 colon
T-47D breast = test system: T-47D breast
TK-10 renal = test system: TK-10 renal
U251 CNS = test system: U251 CNS
UACC-257 melanoma = test system: UACC-257 melanoma
UACC-62 melanoma = test system: UACC-62 melanoma
UO-31 renal = test system: UO-31 renal

CCCn1c(=O)c2[nH]c(-c3ccc(OCc4nc5ccc(F)cc5[nH]4)cc3)nc2n(CCC)c1=O
GI50 (786-0 renal): 16.2 µM
TGI (786-0 renal): > 100 µM
GI50 (A498 renal): 3.36 µM
TGI (A498 renal): 21.3 µM
GI50 (A549 NSCLC): 15.5 µM
TGI (A549 NSCLC): > 100 µM
GI50 (ACHN renal): 14.9 µM
TGI (ACHN renal): 50.1 µM
GI50 (BT-549 breast): 25 µM
TGI (BT-549 breast): > 100 µM
GI50 (CAKI-1 renal): 15.9 µM
TGI (CAKI-1 renal): 62.4 µM
GI50 (CCRF-CEM leukemia): 8.91 µM
TGI (CCRF-CEM leukemia): > 100 µM
GI50 (COLO 205 colon): 99.1 µM
TGI (COLO 205 colon): > 100 µM
GI50 (DU-145 prostate): 41.5 µM
TGI (DU-145 prostate): > 100 µM
GI50 (EKVX NSCLC): 30.3 µM
TGI (EKVX NSCLC): > 100 µM
GI50 (HCC-2998 colon): > 100 µM
TGI (HCC-2998 colon): > 100 µM
GI50 (HCT-116 colon): 22.4 µM
TGI (HCT-116 colon): > 100 µM
GI50 (HCT-15 colon): 30 µM
TGI (HCT-15 colon): > 100 µM
GI50 (HL-60(TB) leukemia): > 100 µM
TGI (HL-60(TB) leukemia): > 100 µM
GI50 (HOP-62 NSCLC): 9.88 µM
TGI (HOP-62 NSCLC): > 100 µM
GI50 (HOP-92 NSCLC): 4.78 µM
TGI (HOP-92 NSCLC): 36.8 µM
GI50 (HS 578T breast): 4.1 µM
TGI (HS 578T breast): > 100 µM
GI50 (HT29 colon): 26.9 µM
TGI (HT29 colon): > 100 µM
GI50 (IGROV1 ovarian): 16.5 µM
TGI (IGROV1 ovarian): > 100 µM
GI50 (K-562 leukemia): 8.81 µM
TGI (K-562 leukemia): > 100 µM
GI50 (KM12 colon): 78.9 µM
TGI (KM12 colon): > 100 µM
GI50 (LOX IMVI melanoma): 15.9 µM
TGI (LOX IMVI melanoma): 46.9 µM
GI50 (M14 melanoma): 52 µM
TGI (M14 melanoma): > 100 µM
GI50 (MALME-3M melanoma): 12.6 µM
TGI (MALME-3M melanoma): 38.7 µM
GI50 (MCF7 breast): 8.54 µM
TGI (MCF7 breast): 93.2 µM
GI50 (MDA-MB-231 breast): 15.7 µM
TGI (MDA-MB-231 breast): 39.3 µM
GI50 (MDA-MB-435): 25.1 µM
TGI (MDA-MB-435): > 100 µM
GI50 (MDA-MB-468 breast): 4.75 µM
TGI (MDA-MB-468 breast): 40.9 µM
GI50 (MOLT-4 leukemia): 6.44 µM
TGI (MOLT-4 leukemia): > 100 µM
GI50 (NCI-H226 lung): 11.2 µM
TGI (NCI-H226 lung): 36.9 µM
GI50 (NCI-H23 lung): 21 µM
TGI (NCI-H23 lung): > 100 µM
GI50 (NCI-H460 lung): 11.1 µM
TGI (NCI-H460 lung): 32.3 µM
GI50 (NCI-H522 lung): 8.29 µM
TGI (NCI-H522 lung): > 100 µM
GI50 (NCI/ADR-RES ovarian): 30.4 µM
TGI (NCI/ADR-RES ovarian): > 100 µM
GI50 (OVCAR-3 ovarian): 15.1 µM
TGI (OVCAR-3 ovarian): 67 µM
GI50 (OVCAR-4 ovarian): 4.24 µM
TGI (OVCAR-4 ovarian): > 100 µM
GI50 (OVCAR-5 ovarian): > 100 µM
TGI (OVCAR-5 ovarian): > 100 µM
GI50 (OVCAR-8 ovarian): 6.34 µM
TGI (OVCAR-8 ovarian): 34 µM
GI50 (PC-3 prostate): 5.96 µM
TGI (PC-3 prostate): > 100 µM
GI50 (RPMI-8226 leukemia): 5.14 µM
TGI (RPMI-8226 leukemia): > 100 µM
GI50 (RXF 393 renal): 2.76 µM
TGI (RXF 393 renal): 11.3 µM
GI50 (SF-268 CNS): 25 µM
TGI (SF-268 CNS): > 100 µM
GI50 (SF-295 CNS): 4.64 µM
TGI (SF-295 CNS): 65.6 µM
GI50 (SF-539 CNS): 12.2 µM
TGI (SF-539 CNS): 27.7 µM
GI50 (SK-MEL-2 melanoma): > 100 µM
TGI (SK-MEL-2 melanoma): > 100 µM
GI50 (SK-MEL-28 melanoma): 28.1 µM
TGI (SK-MEL-28 melanoma): > 100 µM
GI50 (SK-MEL-5 melanoma): 8.5 µM
TGI (SK-MEL-5 melanoma): 33.3 µM
GI50 (SK-OV-3 ovarian): 21 µM
TGI (SK-OV-3 ovarian): > 100 µM
GI50 (SN12C renal): 16.5 µM
TGI (SN12C renal): > 100 µM
GI50 (SNB-19 CNS): > 100 µM
TGI (SNB-19 CNS): > 100 µM
GI50 (SNB-75 CNS): 2.48 µM
TGI (SNB-75 CNS): 20.2 µM
GI50 (SR leukemia): 22.3 µM
TGI (SR leukemia): > 100 µM
GI50 (SW-620 colon): 37.2 µM
TGI (SW-620 colon): > 100 µM
GI50 (T-47D breast): 4.4 µM
TGI (T-47D breast): 50.4 µM
GI50 (TK-10 renal): 24.4 µM
TGI (TK-10 renal): > 100 µM
GI50 (U251 CNS): 17.3 µM
TGI (U251 CNS): > 100 µM
GI50 (UACC-257 melanoma): 30.4 µM
TGI (UACC-257 melanoma): > 100 µM
GI50 (UACC-62 melanoma): 12.3 µM
TGI (UACC-62 melanoma): > 100 µM
GI50 (UO-31 renal): 9.09 µM
TGI (UO-31 renal): 29 µM
